According to patent publication US9107900B2, “Use of dronedarone for the preparation of a medicament for use in the prevention of cardiovascular hospitalization or of morality” (SANOFI, priority 2008, dated 2015):
Structures can show the parent of a compound that is named as a salt.

Tested on: patients having a history of atrial fibrillation or atrial flutter
Test: prospective, multinational, multicentre, double-blind clinical study versus placebo: cardiovascular hospitalizations and mortality
Assay type: in vivo, human
Conditions: for HR (95% CI): cardiovascular hospitalization and death / decrease of cardiovascular hospitalization and death: vs placebo
Protocol: The patients had to have a history of atrial fibrillation or flutter and/or could be in normal sinus rhythm or in atrial fibrillation or flutter at inclusion.
The patient recruitment was carried out by taking into account the following inclusion criteria:
• 1) One of the following risk factors had to be present: • age equal to or greater than 70 years, • hypertension (taking antihypertensives of at least two different classes), • diabetes, • history of cerebral stroke (transient ischemic event or completed cerebral stroke) or of systemic embolism, • left atrial diameter greater than or equal to 50 mm measured by echocardiography, • left ventricular ejection fraction less than 40%, measured by two-dimensional echography; or • age equal to or above 70, or even above 75, possibly combined with at least one of the risk factors below: • hypertension (taking antihypertensives of at least two different classes), • diabetes, • history of cerebral stroke (transient ischemic event or completed cerebral stroke) or of systemic embolism, • left atrial diameter greater than or equal to 50 mm measured by echocardiography, • left ventricular ejection fraction less than 40%, measured by two-dimensional echography; • 2) availability of an electrocardiogram carried out during the past 6 months in order to document the presence or the history of atrial fibrillation or flutter; • 3) availability of an electrocardiogram carried out during the past 6 months in order to document the presence or absence of normal sinus rhythm. […] Criteria Related to a Cardiac Condition: • Patients in permanent atrial fibrillation • Patients in unstable hemodynamic condition such as acute pulmonary edema within 12 hours prior to start of study medication; cardiogenic shock; treatment with IV pressor agents; patients on respirator; congestive heart failure of stage NYHA IV within the last 4 weeks; uncorrected, hemodynamically significant primary obstructive valvular disease; hemodynamically significant obstructive cardomyopathy; a cardiac operation or revascularization procedure within 4 weeks preceding randomization • Planned major non-cardiac or cardiac surgery or procedures including surgery for valvular heart disease, coronary artery bypass graft (CABG), percutaneous coronary intervention (PCI), or on urgent cardiac transplantation list • Acute myocarditis or constrictive pericarditis • Bradycardia<50 bpm and/or PR-interval>0.28 sec on the last 12-lead ECG. • Significant sinus node disease (documented pause of 3 seconds or more) or 2nd or 3rd degree atrioventricular block (AV-block) unless treated with a pacemaker. Criteria Related to Concomitant Medications:
Need of a concomitant medication that is prohibited in this trial, including the requirement for Vaughan Williams Class I and III anti-arrhythmic drugs, that would preclude the use of study drug during the planned study period, i.e. patients have to stop others antiarrhythmics such as Vaughan Williams Class I and III anti-arrhythmic drugs, for example amiodarone, flecamide, propafenone, quinidine, disopyramide, dofetilide, solatol.
• Plasma potassium<3.5 mmol/l (as anti-arrhythmic drugs can be arrhythmogenic in patients with hypokalemia, this must be corrected prior to randomization. • A calculated GFR at baseline<10 ml/min using the Cockroft Gault formula (GFR [ml/min]=(140−AGE [years]*WEIGHT [kilograms]*CONSTANT/CREATININE [μmol/L], where CONSTANT is […]).
Furthermore, the concomitant use of grapefruit juice and all potent inhibitors of CYP3A4 such as ketoconazole were prohibited.
Treatment was initiated using tablets containing either the placebo or an amount of dronedarone hydrochloride corresponding to 400 mg of dronedarone at a rate of twice a day with the morning and evening meal and more specifically at a rate of one tablet in the morning during or shortly after breakfast and one tablet in the evening during or shortly after dinner. […]

[1] = III.30 cardiovascular hospitalization, Dronedarone N = 2301
[2] = III.31 hospitalization not due to supraventricular arrhythmia, Dronedarone N = 2301

CCCCc1oc2ccc(NS(C)(=O)=O)cc2c1C(=O)c1ccc(OCCCN(CCCC)CCCC)cc1 [dronedarone hydrochloride, 2-n-Butyl-3-[4-(3-di-n-butylaminopropoxy)benzoyl]-5-methylsulphonamidobenzofuran]
HR (95% CI): cardiovascular hospitalization and death (Age ≧75 years (N 1925)): 0.75 (0.65, 0.87) | decrease of cardiovascular hospitalization and death (Age ≧75 years): 25% | HR (95% CI): cardiovascular hospitalization and death (Diabetes (N 945)): 0.75 (0.61, 0.91) | decrease of cardiovascular hospitalization and death (Diabetes): 25% | HR (95% CI): cardiovascular hospitalization and death (Hypertension (N 3995)): 0.77 (0.69, 0.85) | decrease of cardiovascular hospitalization and death (Hypertension): 23% | Any cardiovascular hospitalization, number [1]: 675 | Any cardiovascular hospitalization, percent [1]: (29.3%) | Atherosclerosis related (if not otherwise specified), number [1]: 11 | Atherosclerosis related (if not otherwise specified), percent [1]: (0.5%) | Atrial fibrillation and other supraventricular rhythm disorders, number [1]: 296 | Atrial fibrillation and other supraventricular rhythm disorders, percent [1]: (12.9%) | Blood pressure related (hypotension, hypertension; except syncope), number [1]: 21 | Blood pressure related (hypotension, hypertension; except syncope), percent [1]: (0.9%) | Cardiovascular infection, number [1]: 4 | Cardiovascular infection, percent [1]: (0.2%) | Cardiovascular surgery except cardiac transplantation, number [1]: 21 | Cardiovascular surgery except cardiac transplantation, percent [1]: (0.9%) | Implantation of a pacemaker, ICD or any other cardiac device, number [1]: 32 | Implantation of a pacemaker, ICD or any other cardiac device, percent [1]: (1.4%) | Major bleeding (requiring two or more units of blood or any intracranial hemorrhage), number [1]: 21 | Major bleeding (requiring two or more units of blood or any intracranial hemorrhage), percent [1]: (0.9%) | Myocardial infarction or unstable angina, number [1]: 48 | Myocardial infarction or unstable angina, percent [1]: (2.1%) | Non-fatal cardiac arrest, number [1]: 3 | Non-fatal cardiac arrest, percent [1]: (0.1%) | Other ventricular arrhythmia, number [1]: 1 | Other ventricular arrhythmia, percent [1]: (<0.1%) | Pulmonary embolism or deep vein thrombosis, number [1]: 10 | Pulmonary embolism or deep vein thrombosis, percent [1]: (0.4%) | Stable angina pectoris or atypical chest pain, number [1]: 45 | Stable angina pectoris or atypical chest pain, percent [1]: (2.0%) | Syncope, number [1]: 21 | Syncope, percent [1]: (0.9%) | TIA or stroke (except intracranial hemorrhage), number [1]: 28 | TIA or stroke (except intracranial hemorrhage), percent [1]: (1.2%) | Transcutaneous coronary, cerebrovascular or peripheral procedure, number [1]: 27 | Transcutaneous coronary, cerebrovascular or peripheral procedure, percent [1]: (1.2%) | Ventricular extrasystoles, number [1]: 1 | Ventricular extrasystoles, percent [1]: (<0.1%) | Ventricular fibrillation, number [1]: 1 | Ventricular fibrillation, percent [1]: (<0.1%) | Ventricular tachycardia (non-sustained and sustained), number [1]: 6 | Ventricular tachycardia (non-sustained and sustained), percent [1]: (0.3%) | Worsening heart failure, including pulmonary edema or dyspnea of cardiac origin, number [1]: 78 | Worsening heart failure, including pulmonary edema or dyspnea of cardiac origin, percent [1]: (3.4%) | Any non-AF cardiovascular hospitalization, number [2]: 438 | Any non-AF cardiovascular hospitalization, percent [2]: (19.0%) | Atherosclerosis related (if not otherwise specified), number [2]: 11 | Atherosclerosis related (if not otherwise specified), percent [2]: (0.5%) | Blood pressure (hypotension, hypertension, not syncope), number [2]: 25 | Blood pressure (hypotension, hypertension, not syncope), percent [2]: (1.1%) | Cardiovascular infection, number [2]: 4 | Cardiovascular infection, percent [2]: (0.2%) | Cardiovascular surgery except cardiac transplantation, number [2]: 24 | Cardiovascular surgery except cardiac transplantation, percent [2]: (1.0%) | Implantation of a pacemaker, ICD or any other cardiac device, number [2]: 46 | Implantation of a pacemaker, ICD or any other cardiac device, percent [2]: (2.0%) | Major bleeding (requiring two or more units of blood or any intracranial hemorrhage), number [2]: 27 | Major bleeding (requiring two or more units of blood or any intracranial hemorrhage), percent [2]: (1.2%) | Myocardial infarction or unstable angina, number [2]: 52 | Myocardial infarction or unstable angina, percent [2]: (2.3%) | Non-fatal cardiac arrest, number [2]: 3 | Non-fatal cardiac arrest, percent [2]: (0.1%) | Other ventricular arrhythmia, number [2]: 1 | Other ventricular arrhythmia, percent [2]: (<0.1) % | Pulmonary embolism or deep vein thrombosis, number [2]: 11 | Pulmonary embolism or deep vein thrombosis, percent [2]: (0.5%) | Stable angina pectoris or atypical chest pain, number [2]: 51 | Stable angina pectoris or atypical chest pain, percent [2]: (2.2%) | Syncope, number [2]: 23 | Syncope, percent [2]: (1.0%) | TIA or stroke (except intracranial hemorrhage), number [2]: 32 | TIA or stroke (except intracranial hemorrhage), percent [2]: (1.4%) | Transcutaneous coronary, cerebrovascular or peripheral procedure, number [2]: 31 | Transcutaneous coronary, cerebrovascular or peripheral procedure, percent [2]: (1.3%) | Ventricular extrasystoles, number [2]: 1 | Ventricular extrasystoles, percent [2]: (<0.1) % | Ventricular fibrillation, number [2]: 1 | Ventricular fibrillation, percent [2]: (<0.1) % | Ventricular tachycardia (non-sustained and sustained), number [2]: 6 | Ventricular tachycardia (non-sustained and sustained), percent [2]: (0.3%) | Worsening heart failure, including pulmonary edema or dyspnea of cardiac origin, number [2]: 89 | Worsening heart failure, including pulmonary edema or dyspnea of cardiac origin, percent [2]: (3.9%) | HR (95% CI): cardiovascular hospitalization and death (LVEF <0.40 (N 338)): 0.72 (0.51, 1.00) | decrease of cardiovascular hospitalization and death (LVEF <0.40): 28%
